The record followed here is ChEMBL document CHEMBL4665901, “Novel CDK2 Inhibitors for Treating Cancer” (ACS Med Chem Lett, 2020).

The assay deals with Cyclin-dependent kinase 2/cyclin E1 (Homo sapiens, UniProt P24941). Description: Inhibition of recombinant full length wild-type CDK2/Cyclin E1 (unknown origin) expressed in baculovirus expression system assessed as […] using 5-FAM-QSPKKG-CONH2 peptide as substrate preincubated with enzyme for 15 mins followed by further incubation with ATP for 45 mins by fluorescence-based microfluidic mobility shift assay.

On to `COc1ccc(CC(=O)Nc2cc([C@H]3CC[C@@H](OC(=O)N4C[C@@H](C#N)[C@@H]4C)C3)[nH]n2)cn1` (single isomer, unassigned), for which the Ki was 0.17 nM.

Turning to `COc1ccc(CC(=O)Nc2cc([C@@H]3CC[C@H](OC(=O)N4CCC4(C)C)C3)[nH]n2)cn1`, the inhibitory constant (Ki) is 0.12 nM.

Consider `Cc1ncc(CC(=O)Nc2cc([C@H]3CC[C@@H](OC(=O)N4C[C@@H](C#N)[C@@H]4C)C3)[nH]n2)s1` (single isomer, unassigned), for which the Ki is 0.15 nM.

As to `CCC(CO)CNC(=O)O[C@@H]1CC[C@H](c2cc(NC(=O)Cc3ccc(OC)nc3)n[nH]2)C1` (single isomer, unassigned), the inhibitory constant (Ki) is 0.77 nM.
